Values quoted from earlier work, collected in patent US20240197617A1, “ANTI-AGING COSMETIC COMPOSITION BASED ON RESVERATROL AND MAGNOLIA” (Tomcat International Limited, priority 2021, published 2024).

System: TET enzymes
Details: study carried out on a mouse

- Effect on activity of TET enzymes: stimulated the activity of TET enzymes
Compound: C=CCc1ccc(O)c(-c2ccc(O)c(CC=C)c2)c1 [honokiol]
